{"source": "patent US20260317296A1", "about": "“HETEROCYCLIC COMPOUNDS FOR IMAGING AGGREGATED TAU IN TAUOPATHIES” (University of Pittsburgh - Of the Commonwealth System of …, priority 2023, published 2026)", "key": {"[1]": {"biological_target": "T1, aggregated 4R-tau in PSP tissue (Homo sapiens, UniProt P10636)", "T1 construct": "autopsy-confirmed postmortem AD, PSP, and CBD human brain tissues; tissue UCSF Neurodegenerative Disease Brain Bank; host or cells: post-mortem human PSP brain homogenate", "T1 sequence (P10636 1-441 isoform P10636-8)": "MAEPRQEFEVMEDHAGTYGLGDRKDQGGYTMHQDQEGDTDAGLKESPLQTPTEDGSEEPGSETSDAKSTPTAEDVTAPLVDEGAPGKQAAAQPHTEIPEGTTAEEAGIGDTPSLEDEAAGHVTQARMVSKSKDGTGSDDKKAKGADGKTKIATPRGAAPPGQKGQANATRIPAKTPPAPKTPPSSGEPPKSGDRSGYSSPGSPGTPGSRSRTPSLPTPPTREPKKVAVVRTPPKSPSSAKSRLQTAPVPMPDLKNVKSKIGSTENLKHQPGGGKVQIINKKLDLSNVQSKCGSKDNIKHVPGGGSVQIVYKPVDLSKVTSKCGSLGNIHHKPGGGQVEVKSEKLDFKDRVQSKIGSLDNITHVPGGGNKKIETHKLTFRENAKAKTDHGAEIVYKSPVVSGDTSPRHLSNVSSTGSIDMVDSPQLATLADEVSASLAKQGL", "experiment": "In vitro competition (Ki) assay, PSP brain tissue homogenate", "type": "binding", "description": "(§1) The assays utilized autopsy-confirmed postmortem AD, PSP, and CBD human brain tissues obtained from the UCSF Neurodegenerative Disease Brain Bank and contained frequent autopsy-confirmed 3R/4R-tau and amyloid-beta aggregates (AD tissue) or only 4R-tau aggregates (PSP and CBD tissues) and no other detectable aggregated amyloid species. Briefly, the tissues were homogenized in ice-cold pH 7.0 phosphate buffered saline (PBS) at 300 mg/mL on ice using a glass homogenizer, diluted 30-fold with PBS to 10 mg/mL and homogenized a second time with a Brinkmann Polytron homogenizer before storage at −80° C. Frozen brain tissue was thawed and diluted 10-fold in PBS to 1 mg/mL. […] The appropriate concentrations (ranging from 0.1-1000 nM) of unlabeled competitor in 400 μL of PBS buffer were combined with 500 μL of the tritium-labeled radioligand in PBS (~1 nM final concentration of radioligand). The assay was initiated by the addition of 100 μL of 1 mg/mL brain tissue homogenate to achieve a final concentration of 100 pg tissue/mL. After incubation for 60 min at room temperature, the binding mixture was filtered through a Whatman GF/B glass filter via a Brandel M-24R cell harvester (Gaithersburg, MD, USA) and rapidly washed four times with 3 mL PBS buffer. The filters were counted in Cytoscint-ES after thorough vortexing using a liquid scintillation counter. […] All assays were performed in triplicate at each concentration."}, "[2]": {"biological_target": "T2, aggregated 4R-tau in AD tissue (Homo sapiens, UniProt P10636)", "T2 construct": "autopsy-confirmed postmortem AD, PSP, and CBD human brain tissues; tissue UCSF Neurodegenerative Disease Brain Bank; host or cells: post-mortem human AD brain homogenate", "T2 sequence (P10636 1-441 isoform P10636-8)": "as above", "T2 sequence (P10636 1-410 isoform P10636-5)": "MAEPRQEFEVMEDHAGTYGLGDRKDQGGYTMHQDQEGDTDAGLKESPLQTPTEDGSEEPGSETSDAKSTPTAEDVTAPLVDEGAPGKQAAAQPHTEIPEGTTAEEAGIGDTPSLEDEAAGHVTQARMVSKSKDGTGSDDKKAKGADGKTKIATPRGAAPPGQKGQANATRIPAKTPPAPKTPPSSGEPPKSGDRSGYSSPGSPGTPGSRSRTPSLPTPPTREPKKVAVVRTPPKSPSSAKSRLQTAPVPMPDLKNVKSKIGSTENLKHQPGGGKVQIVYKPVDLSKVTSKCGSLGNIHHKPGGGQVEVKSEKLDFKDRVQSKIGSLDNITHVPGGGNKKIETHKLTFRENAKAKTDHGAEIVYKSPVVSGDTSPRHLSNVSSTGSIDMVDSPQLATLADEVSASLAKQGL", "experiment": "In vitro competition (Ki) assay, AD brain tissue homogenate", "type": "binding", "description": "as §1"}, "[3]": {"biological_target": "T3, aggregated 4R-tau in PSP brain (Homo sapiens, UniProt P10636)", "T3 construct": "aggregated 4R-tau in human brain tissue samples from AD, PSP, and CBD patients; from tissue; host or cells: homogenized cortex of human PSP brain", "T3 sequence (P10636 1-441 isoform P10636-8)": "as the sequence (P10636 1-441 isoform P10636-8) above", "experiment": "Binding affinity (Kd) assay, PSP brain homogenate", "details": "for Kd: PSP brain, Table 1"}, "alpha-synuclein": {"biological_target": "T4, alpha-synuclein (Homo sapiens, UniProt P37840)", "T4 construct": "Parkinson's Disease (PD) post-mortem brain tissue; from tissue; host or cells: post-mortem Parkinson's Disease brain", "experiment": "Homologous binding assay, Parkinson's Disease (PD) brain tissue"}, "P301L mouse brain tissue": {"biological_target": "T5, P301L mouse brain tissue (Homo sapiens, UniProt P10636, P618L)", "T5 construct": "from tissue; host or cells: brain tissue of P301L mouse", "T5 sequence (P10636 1-441 isoform P10636-8 P301L)": "as the sequence (P10636 1-441 isoform P10636-8) above, with P301L counted along it", "experiment": "Homologous binding assay, P301L mouse brain tissue"}, "[4]": {"biological_target": "T6, aggregated 4R-tau in CBD brain (Homo sapiens, UniProt P10636)", "T6 construct": "aggregated 4R-tau in human brain tissue samples from AD, PSP, and CBD patients; from tissue; host or cells: homogenized cortex of human CBD brain", "T6 sequence (P10636 1-441 isoform P10636-8)": "as the sequence (P10636 1-441 isoform P10636-8) above", "experiment": "Binding affinity (Kd) assay, CBD brain homogenate", "details": "for Kd: CBD brain, Table 1"}, "AD brain tissue": {"tested_on": "AD brain tissue", "experiment": "Autoradiography, post-mortem AD brain tissue", "type": "binding, human", "details": "medial frontal cortex, 5 nM, self-blocking with 1 mM unlabeled 69"}, "[5]": {"biological_target": "T7, aggregated 4R-tau in AD brain (Homo sapiens, UniProt P10636)", "T7 construct": "aggregated 4R-tau in human brain tissue samples from AD, PSP, and CBD patients; from tissue; host or cells: homogenized cortex of human AD brain", "T7 sequence (P10636 1-441 isoform P10636-8)": "as above", "T7 sequence (P10636 1-410 isoform P10636-5)": "as the sequence (P10636 1-410 isoform P10636-5) above", "experiment": "Binding affinity (Kd) assay, AD brain homogenate", "details": "for Kd: AD brain, Table 1"}, "PSP brain tissue": {"tested_on": "PSP brain tissue", "experiment": "Autoradiography, post-mortem PSP brain tissue", "type": "binding, human", "details": "medial frontal cortex, 5 nM, self-blocking with 1 mM unlabeled 69"}, "CBD brain tissue": {"tested_on": "CBD brain tissue", "experiment": "Autoradiography, post-mortem CBD brain tissue", "type": "binding, human", "details": "medial frontal cortex, 5 nM, self-blocking with 1 mM unlabeled 69"}, "[6]": {"biological_target": "T8, Pick's Disease brain tissue (Homo sapiens, UniProt P10636)", "T8 construct": "post-mortem human AD, PSP, CBD, and Pick's Disease brain tissue; from tissue; host or cells: post-mortem human Pick's Disease brain", "T8 sequence (P10636 1-410 isoform P10636-5)": "as above", "experiment": "Homologous binding assay, Pick's Disease brain tissue", "details": "post-mortem human Pick's Disease brain tissue"}, "[7]": {"tested_on": "post-mortem human brain control tissue", "experiment": "Autoradiography, post-mortem control brain tissue", "type": "binding", "details": "cingulate gyrus, 5 nM, self-blocking with 1 mM unlabeled 69"}, "log D of radiotracer": {"experiment": "log D of radiotracer", "type": "physicochemical", "details": "n=4"}, "[8]": {"biological_target": "T9, PiB binding site on amyloid-beta (Homo sapiens, UniProt P05067)", "T9 construct": "from tissue; host or cells: post-mortem human AD brain", "T9 sequence (P05067 672-713 limits assumed)": "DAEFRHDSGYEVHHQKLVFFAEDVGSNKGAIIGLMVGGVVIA", "experiment": "Competition against [^3H]PiB in post-mortem human AD brain tissue", "description": "The assays utilized autopsy-confirmed postmortem AD, PSP, and CBD human brain tissues obtained from the UCSF Neurodegenerative Disease Brain Bank and contained frequent autopsy-confirmed 3R/4R-tau and amyloid-beta aggregates (AD tissue) or only 4R-tau aggregates (PSP and CBD tissues) and no other detectable aggregated amyloid species. Briefly, the tissues were homogenized in ice-cold pH 7.0 phosphate buffered saline (PBS) at 300 mg/mL on ice using a glass homogenizer, diluted 30-fold with PBS to 10 mg/mL and homogenized a second time with a Brinkmann Polytron homogenizer before storage at −80° C. Frozen brain tissue was thawed and diluted 10-fold in PBS to 1 mg/mL. […] The appropriate concentrations (ranging from 0.1-1000 nM) of unlabeled competitor in 400 μL of PBS buffer were combined with 500 μL of the tritium-labeled radioligand in PBS (~1 nM final concentration of radioligand). The assay was initiated by the addition of 100 μL of 1 mg/mL brain tissue homogenate to achieve a final concentration of 100 pg tissue/mL. After incubation for 60 min at room temperature, the binding mixture was filtered through a Whatman GF/B glass filter via a Brandel M-24R cell harvester (Gaithersburg, MD, USA) and rapidly washed four times with 3 mL PBS buffer. The filters were counted in Cytoscint-ES after thorough vortexing using a liquid scintillation counter. […]"}, "[9]": {"details": "vs [^3H]1, n = 1, Ki=IC50/2, read-out: Inhibition Constant (Ki) versus [^3H]1"}, "[10]": {"details": "post-mortem human AD brain tissue"}, "[11]": {"details": "vs [^3H]2, n = 1, Ki=IC50/2, read-out: Inhibition Constant (Ki) versus [^3H]2"}}, "note": "Read-outs that look alike come from different tables or passages of the source."}
{"compound": "OC1CCN(c2ncc(-c3cc4cc(F)ccc4[nH]3)cn2)CC1", "note": "[Compound 47, 1-(5-(5-Fluoro-1H-indol-2-yl)pyrimidin-2-yl)piperidin-4-ol]", "values": [{"measurement": "Ki", "setting": "[1]; [9]", "result": 20, "unit": "nM"}, {"measurement": "Ki", "setting": "[2]; [9]", "result": 21, "unit": "nM"}]}
{"compound": "OC1CCN(c2ncc(-c3cc4ccccc4[nH]3)cn2)CC1", "note": "[Compound 46, 1-(5-(1H-Indol-2-yl)pyrimidin-2-yl)piperidin-4-ol]", "values": [{"measurement": "Ki", "setting": "[1]; [9]", "result": 24, "unit": "nM"}, {"measurement": "Ki", "setting": "[2]; [9]", "result": 11, "unit": "nM"}]}
{"compound": "Cn1c(-c2cnc(N3CCOCC3)nc2)cc2ccc(F)cc21", "note": "[Compound 103, 4-(5-(6-Fluoro-1-methyl-1H-indol-2-yl)pyrimidin-2-yl)morpholine]", "values": [{"measurement": "Ki", "setting": "[1]; [9]", "result": 32, "unit": "nM"}, {"measurement": "Ki", "setting": "[2]; [9]", "result": 22, "unit": "nM"}]}
{"compound": "Fc1nc(N2CCOCC2)ccc1-c1cc2ccccc2[nH]1", "note": "[[^3H]69]", "values": [{"measurement": "binding affinity (in words)", "setting": "[3]; post-mortem human PSP brain tissue", "result": "high affinity"}, {"measurement": "Kd", "setting": "alpha-synuclein; PD tissue, Table 7 (n = 4)", "result": "110 ± 54", "unit": "nM"}, {"measurement": "binding affinity (in words)", "setting": "alpha-synuclein; Parkinson's Disease (PD) post-mortem brain tissue", "result": "low affinity"}, {"measurement": "binding affinity (in words)", "setting": "P301L mouse brain tissue", "result": "high affinity"}, {"measurement": "binding affinity (in words)", "setting": "[4]; post-mortem human CBD brain tissue", "result": "high affinity"}, {"measurement": "specific binding by autoradiography", "setting": "AD brain tissue", "result": "Specific binding"}, {"measurement": "binding affinity (in words)", "setting": "[5]; [10]", "result": "high affinity"}, {"measurement": "specific binding by autoradiography", "setting": "PSP brain tissue", "result": "Specific binding"}, {"measurement": "specific binding by autoradiography", "setting": "CBD brain tissue", "result": "Specific binding"}, {"measurement": "binding affinity (in words)", "setting": "[6]", "result": "high affinity"}, {"measurement": "specific binding by autoradiography", "setting": "[7]", "result": "Little to no specific binding"}]}
{"compound": "Fc1ccc2cc(-c3cnc(N4CCC(F)(F)CC4)nc3)[nH]c2c1", "note": "[Compound 17, 2-(2-(4,4-Difluoropiperidin-1-yl)pyrimidin-5-yl)-6-fluoro-1H-indole]", "values": [{"measurement": "Ki", "setting": "[1]; [9]", "result": 23, "unit": "nM"}, {"measurement": "Ki", "setting": "[2]; [9]", "result": 37, "unit": "nM"}]}
{"compound": "Fc1ccc2cc(-c3cnc(N4CCOCC4)nc3)[nH]c2c1", "note": "[[^3H]2]", "values": [{"measurement": "Kd", "setting": "[3]", "result": "1.6 ± 0.2", "unit": "nM"}, {"measurement": "Kd", "setting": "[4]", "result": "1.7 ± 0.3", "unit": "nM"}, {"measurement": "Kd", "setting": "[5]", "result": "1.2 ± 0.5", "unit": "nM"}]}
{"compound": "Fc1ccc2cc(-c3ncc(N4CCOCC4)cc3F)[nH]c2c1", "note": "[Compound 98, 4-(5-Fluoro-6-(6-fluoro-1H-indol-2-yl)pyridin-3-yl)morpholine]", "values": [{"measurement": "Ki", "setting": "[1]; [11]", "result": 20, "unit": "nM"}, {"measurement": "Ki", "setting": "[2]; [11]", "result": 17, "unit": "nM"}]}
{"compound": "[18F]c1nc(N2CCOCC2)ccc1-c1cc2ccccc2[nH]1", "note": "[[^18F]69, 4-(6-[^18F]Fluoro-5-(1H-indol-2-yl)pyridin-2-yl)morpholine]", "values": [{"measurement": "logD", "setting": "log D of radiotracer", "result": "1.96 ± 10"}]}
{"compound": "Fc1ccc2cc(-c3cnc(N4CCOCC4)cc3F)[nH]c2c1", "note": "[Compound 82, 4-(4-Fluoro-5-(6-fluoro-1H-indol-2-yl)pyridin-2-yl)morpholine]", "values": [{"measurement": "Ki", "setting": "[1]; [11]", "result": 12, "unit": "nM"}, {"measurement": "Ki", "setting": "[2]; [11]", "result": 11, "unit": "nM"}]}
{"compound": "Fc1nc(N2CCOCC2)ccc1-c1cc2ccccc2[nH]1", "note": "[Compound 69, 4-(6-Fluoro-5-(1H-indol-2-yl)pyridin-2-yl)morpholine]", "values": [{"measurement": "binding to alpha-synuclein (in words)", "setting": "alpha-synuclein; concluded from PD brain tissue", "result": "does not bind strongly to alpha-synuclein"}, {"measurement": "binding to the PiB binding site on amyloid-beta (in words)", "setting": "[8]; concluded from competition against [^3H]PiB", "result": "does bind to the PiB binding site on amyloid-beta"}, {"measurement": "competition against [^3H]PiB (in words)", "setting": "[8]; [10]", "result": "does not compete well"}]}
{"compound": "OC1CCN(c2ncc(-c3cc4cc(F)ccc4o3)cn2)CC1", "note": "[Compound 43, 1-(5-(5-Fluorobenzofuran-2-yl)pyrimidin-2-yl)piperidin-4-ol]", "values": [{"measurement": "Ki", "setting": "[1]; [9]", "result": 91, "unit": "nM"}, {"measurement": "Ki", "setting": "[2]; [9]", "result": 45, "unit": "nM"}]}
{"compound": "OC1CCN(c2ncc(-c3cc4ccc(F)cc4[nH]3)cn2)CC1", "note": "[[^3H]1]", "values": [{"measurement": "Kd", "setting": "[3]", "result": "5.1 ± 1.2", "unit": "nM"}, {"measurement": "Kd", "setting": "[4]", "result": 4.1, "unit": "nM"}, {"measurement": "Kd", "setting": "[5]", "result": "4 ± 3.1", "unit": "nM"}]}
